According to patent US20260258004A1, “CRYSTALLINE FORMS OF (6S)-5-[4'-FLUORO-2-(TRIFLUOROMETHYL)BIPHENYL-4-YL]-6-METHYL-3,6- DIHYDRO-2H-l,3,4-OXADIAZIN-2-ONE” (Bayer Aktiengesellschaft, priority 2022, published 2026):

Experiments:
Type in all cases: physicochemical
[1] = Particle size analysis of micronized product, laser diffraction (Sympatec HELOS/RODOS, dry dispersion); details: micronized twice, air jet mill; dry dispersion at 4 bar
Text: The instrumental set-up for particle size analysis: • Laser diffraction pattern analyzer (Sympatec HELOS, H1970 & RODOS, R3:0.5/0.9 . . . 175 μm), 100 mm focal length, • Dry dispersion (RODOS) at 4 bar, • Mathematical model (LD 5.9.0.0)-Sympatec Code, basis Fraunhofer Diffraction

[2] = Particle size distribution by laser diffraction (Malvern Panalytical Mastersizer 3000, Fraunhofer)
Description: The particle size distribution was measured by laser diffraction using the Malvern Panalytical Mastersizer 3000.
The samples are again taken from example 1.6 (probe 1) and example 1.5 (probe 2), the same as used in example 4.
The sample to be analyzed is dispersed in 1 drop of Tween 80 the sample is processed according to ISO13320.
Laser diffraction is an often-used method for determination the particle size of dispersed solid materials. A widened laser beam illuminates a cuvette which contains part of the particles. By diffraction on the particles a characteristic pattern can be mapped on the detector. The resulting diffraction image is the additive overlaying of diffraction images of all particles.
Besides the mentioned detector two additional detectors are mounted in order to detect diffraction light in forward direction (FA1,9), in wide angle (LA1,2) and in back direction (BS1,2). The turbidity of the sample is measured by an extinction sensor. This is necessary to ensure a low particle concentration which is necessary to avoid wrong results by multiple diffraction of light at several particles.
The cuvette used was a wet unit where the suspension is pumped in a closed circuit with a dispersing unit that ensures a separation of single particles by shear forces.
The measurement range of the Malvern 3000 covers a particle size from 1 mm (2 mm) down to 20 nm
The calculation of the particle size distribution from the diffraction patterns was done on basis of theory of Fraunhofer.
This assumption is valid for particle sizes of 10 to 50 μm and above. For smaller particles the light scattering of the particle itself due to optical transparency must be considered which is done in the Mie-theory (not used for our probes). Precondition of the application of the Mie-theory is the knowledge of the refractive and absorption index of the dispersed solids.
Q3 is the cumulative volume distribution, e.g. D50=Q(50%) indicates 50% of the volume part of the sample is smaller than particle size of 50 μm.
The particle size is expressed as an equivalent diameter used in the method recommended by the Malvern Analysis Program and as described in ISO13320.

[3] = Hygroscopicity classification applying the Pharmacopeia rules
Text: The shear cell was fully filled with a sample of powder of the compound of formula (I) thereby preventing condensing the powder. Both samples, sample 1 and sample 2, were classified as non-hydroscopic applying the Pharmacopeia rules.

[4] = Determination of bulk density during shear tests; details: during shear test, normal stress 1.5 kPa
Description: Because of the normal stress of 1.5 kPa applied on the top of the lid during the shear test the lid lowers into the shear cell and compresses the powder.
During the shear tests this lowering of the lid is measured and recorded. Since the volume of the bottom ring is known and weight of the sample measured before the beginning of the shear test the bulk density of the sample during the shear test is calculated
[formula] • with: • ρb,shear: Bulk density under shear • mges: total mass of shear cell including powder sample (w/o lid) • mcell: net mass of shear cell (w/o powder sample, w/o lid) • hc: height of the bottom ring • hl: lowering of lid • Acell: bottom area of shear cell
The calculation of the bulk density is done automatically with the evaluation software provided together with the shear tester.

[5] = without ultrasound (US), listed as Probe 1

## C[C@@H]1OC(=O)NN=C1c1ccc(-c2ccc(F)cc2)c(C(F)(F)F)c1 [micronized product, (6S)-5-[4′-fluoro-2-(trifluoromethyl)[biphenyl]-4-yl]-6-methyl-3,6-dihydro-2H-1,3,4-oxadiazin-2-one]
[1]
  Particle Size distribution X10: 1.2 μm
  Particle Size distribution X50: 4 μm
  Particle Size distribution X90: 10 μm

## C[C@@H]1OC(=O)NN=C1c1ccc(-c2ccc(F)cc2)c(C(F)(F)F)c1 [polymorph A, (6S)-5-[4′-Fluoro-2-(trifluoromethyl)biphenyl-4-yl]-6-methyl-3,6-dihydro-2H-1,3,4-oxadiazin-2-one]
[2]
  difference between Q3[50] of untreated sample and sample treated 300 s with ultrasound: large
[2]; 300 s US, listed as Probe 1
  D(10): 4.02 μm
  D(50): 44 μm
  D(90): 128 μm
[2]; after US treatment of 300 s, compared to polymorph C
  amount of fines: significantly larger
[2]; after ultrasound treatment
  particle size distribution compared to polymorph C: significantly smaller particle size and broader distribution
[2]; particle size D 0.01 μm, 300 s US
  Cumulative volume distribution Q: 0%
[2]; particle size D 0.01 μm, without US
  Cumulative volume distribution Q: 0%
[2]; particle size D 0.0114 μm, 300 s US
  Cumulative volume distribution Q: 0%
[2]; particle size D 0.0114 μm, without US
  Cumulative volume distribution Q: 0%
[2]; particle size D 0.0129 μm, 300 s US
  Cumulative volume distribution Q: 0%
[2]; particle size D 0.0129 μm, without US
  Cumulative volume distribution Q: 0%
[2]; particle size D 0.0147 μm, 300 s US
  Cumulative volume distribution Q: 0%
[2]; particle size D 0.0147 μm, without US
  Cumulative volume distribution Q: 0%
[2]; particle size D 0.0167 μm, 300 s US
  Cumulative volume distribution Q: 0%
[2]; particle size D 0.0167 μm, without US
  Cumulative volume distribution Q: 0%
[2]; particle size D 0.0189 μm, 300 s US
  Cumulative volume distribution Q: 0%
[2]; particle size D 0.0189 μm, without US
  Cumulative volume distribution Q: 0%
[2]; particle size D 0.0215 μm, 300 s US
  Cumulative volume distribution Q: 0%
[2]; particle size D 0.0215 μm, without US
  Cumulative volume distribution Q: 0%
[2]; particle size D 0.0244 μm, 300 s US
  Cumulative volume distribution Q: 0%
[2]; particle size D 0.0244 μm, without US
  Cumulative volume distribution Q: 0%
[2]; particle size D 0.0278 μm, 300 s US
  Cumulative volume distribution Q: 0%
[2]; particle size D 0.0278 μm, without US
  Cumulative volume distribution Q: 0%
[2]; particle size D 0.0315 μm, 300 s US
  Cumulative volume distribution Q: 0%
[2]; particle size D 0.0315 μm, without US
  Cumulative volume distribution Q: 0%
[2]; particle size D 0.0358 μm, 300 s US
  Cumulative volume distribution Q: 0%
[2]; particle size D 0.0358 μm, without US
  Cumulative volume distribution Q: 0%
[2]; particle size D 0.0407 μm, 300 s US
  Cumulative volume distribution Q: 0%
[2]; particle size D 0.0407 μm, without US
  Cumulative volume distribution Q: 0%
[2]; particle size D 756 μm, 300 s US
  Cumulative volume distribution Q: 100%
[2]; particle size D 756 μm, without US, listed as Probe 1
  Cumulative volume distribution Q: 92.34%
[2]; particle size D 859 μm, 300 s US
  Cumulative volume distribution Q: 100%
[2]; particle size D 859 μm, without US, listed as Probe 1
  Cumulative volume distribution Q: 96.59%
[2]; particle size D 976 μm, 300 s US
  Cumulative volume distribution Q: 100%
[2]; particle size D 976 μm, without US, listed as Probe 1
  Cumulative volume distribution Q: 99.14%
[2]; particle size D 1110 μm, 300 s US
  Cumulative volume distribution Q: 100%
[2]; particle size D 1110 μm, without US
  Cumulative volume distribution Q: 100%
[2]; particle size D 1260 μm, 300 s US
  Cumulative volume distribution Q: 100%
[2]; particle size D 1260 μm, without US
  Cumulative volume distribution Q: 100%
[2]; particle size D 1430 μm, 300 s US
  Cumulative volume distribution Q: 100%
[2]; particle size D 1430 μm, without US
  Cumulative volume distribution Q: 100%
[2]; particle size D 1630 μm, 300 s US
  Cumulative volume distribution Q: 100%
[2]; particle size D 1630 μm, without US
  Cumulative volume distribution Q: 100%
[2]; particle size D 1850 μm, 300 s US
  Cumulative volume distribution Q: 100%
[2]; particle size D 1850 μm, without US
  Cumulative volume distribution Q: 100%
[2]; particle size D 2100 μm, 300 s US
  Cumulative volume distribution Q: 100%
[2]; particle size D 2100 μm, without US
  Cumulative volume distribution Q: 100%
[2]; particle size D 2390 μm, 300 s US
  Cumulative volume distribution Q: 100%
[2]; particle size D 2390 μm, without US
  Cumulative volume distribution Q: 100%
[2]; particle size D 2710 μm, 300 s US
  Cumulative volume distribution Q: 100%
[2]; particle size D 2710 μm, without US
  Cumulative volume distribution Q: 100%
[2]; particle size D 3080 μm, 300 s US
  Cumulative volume distribution Q: 100%
[2]; particle size D 3080 μm, without US
  Cumulative volume distribution Q: 100%
[2]; particle size D 3500 μm, 300 s US
  Cumulative volume distribution Q: 100%
[2]; particle size D 3500 μm, without US
  Cumulative volume distribution Q: 100%
[2]; [5]
  D(10): 165 μm
  D(50): 404 μm
  D(90): 720 μm
[2]; without ultrasound treatment
  particle size distribution compared to polymorph C: significantly broader particle size distribution and larger particles
[3]
  hygroscopicity classification: non-hydroscopic
[4]
  bulk density: 270 kg/m^3
